Patent US9878999B2, “Proteasome chymotrypsin-like inhibition using PI-1833 analogs” (H. Lee Moffitt Cancer Center and Research Institute, Inc., priority 2011, dated 2018)
Values joined by “and” are separate entries in the source; they are usually repeats but may differ in a detail not shown here. Equal values may be shown once. Read-outs that look alike come from different tables or passages of the source.

Key:
[1] = target: CT-L activity of purified 20S proteasome (Homo sapiens, UniProt P20618+P28074); assay: in vitro CT-L activity of purified 20S proteasome; format: biochemical; details: for inhibition at 10 µM / Screening Results (% Inhibition @ 10 μM) Chymotrypsin-like: Table 5, @ 10 μM; for inhibition at 10 µM: read-out: Screening Results (% Inhibition @ 10 μM) Chymotrypsin-like
[2] = target: T1, CT-L activity in human breast cancer MDA-MB-468 cells (Homo sapiens, UniProt P20618+P28074); assay: whole cell CT-L activity in MDA-MB-468 cells; format: cell-based
T1 construct: endogenous in cells; host or cells: MDA-MB-468

[3] = Table 1, read-out: IC50 (μM) Chymotrypsin-like activity
[4] = Table 5, read-out: IC50 (μM) Chymotrypsin-like
[5] = Table 9, read-out: IC50 (μM) Chymotrypsin-like

CC(C)N(Cc1nc(-c2ccccc2)no1)C(=O)COc1ccc(C(=O)O)cc1 [11t, 4-(2-(Isopropyl((3-phenyl-1,2,4-oxadiazol-5-yl)methyl)amino)-2-oxoethoxy)benzoic acid]
melting point: 211.3 to 213.8 °C | IC50 [1, 3]: 27.8 ± 20.8 µM | IC50 ([1]; read-out: IC50, in vitro CT-L): 27 µM

Cc1ccc(OCC(=O)N(Cc2nc(-c3ccc(C)cc3)no2)C(C)C)cc1 [compound 1, N-Isopropyl-N-((3-p-tolyl-1,2,4-oxadiazol-5-yl)methyl)-2-(p-tolyloxy)acetamide]
IC50 ([2]; MDA-MB-468 breast cancer cells, read-out: whole cell IC50 activity): 1.1 µM and 1 µM | IC50 [1, 3]: 0.63 ± 0.35 µM | IC50 ([1]; Table 2, read-out: IC50 (μM) Chymotrypsin-like activity): 0.63 ± 0.35 µM | IC50 ([1]; Table 7, 20S CT-L proteasome activity, read-out: IC50 (μM) CT-L): 0.716 ± 0.27 µM | IC50 ([1]; read-out: IC50, in vitro CT-L): 0.65 ± 0.39 µM

Cc1ccc(OCC(=O)N(Cc2nc(-c3ccc(C)cc3)no2)C(C)C)cc1 [drawing 107]
IC50 ([2]; Table 5, MDA-MB-468, read-out: Whole cell IC50 (μM) Chymotrypsin-like): 1.1 µM | IC50 [1, 4]: 0.63 ± 0.35 µM

Cc1ccc(-c2noc(CN(C(=O)COc3ccc(C(F)(F)F)cc3)C(C)C)n2)cc1 [drawing 118]
IC50 [1, 4]: 1.08 ± 0.33 µM

CC(C)N(Cc1nc(-c2ccc(Cl)cc2)no1)C(=O)COc1ccc(Cl)cc1 [drawing 119]
IC50 [1, 4]: 1.07 ± 0.05 µM

CC(C)N(Cc1nc(-c2ccc(C(F)(F)F)cc2)no1)C(=O)COc1ccc(Cl)cc1 [drawing 120]
IC50 [1, 4]: 1.4 ± 0.185 µM

CC(C)N(Cc1nc(-c2ccccc2)no1)C(=O)COc1ccc(Cl)cc1 [drawing 121]
IC50 [1, 4]: 0.51 ± 0.16 µM

Cc1ccc(OCC(=O)N(C)Cc2nc(-c3ccc(C)cc3)no2)cc1 [drawing 122]
IC50 [1, 4]: 29.9 ± 3.9 µM

Cc1ccc(-c2noc(CN(C(=O)COc3ccc(Cl)cc3)C(C)C)n2)cc1 [drawing 123]
IC50 [1, 4]: 1.12 ± 0.33 µM

Cc1ccc(-c2noc(CN(C(=O)COc3ccccc3)C(C)C)n2)cc1 [drawing 124]
IC50 [1, 4]: 8.47 ± 0.59 µM

CC(C)N(Cc1nc(-c2ccc(C(F)(F)F)cc2)no1)C(=O)COc1ccccc1 [drawing 126]
IC50 [1, 4]: 15.1 ± 6.94 µM

CC(C)N(Cc1nc(-c2ccccc2)no1)C(=O)COc1ccccc1 [drawing 127]
IC50 [1, 4]: 6.22 ± 1.11 µM

CCN(Cc1nc(-c2ccc(C)cc2)no1)C(=O)COc1ccc(C)cc1 [drawing 128]
IC50 [1, 4]: 8.98 ± 5.21 µM

Cc1ccc(CNC(=O)N(Cc2nc(-c3ccccc3)no2)C(C)C)cc1 [drawing 129]
inhibition at 10 µM [1]: -8.75 ± 17.4%

CC(C)N(Cc1nc(-c2ccccc2)no1)C(=O)CCc1ccc(C(F)(F)F)cc1 [drawing 130]
IC50 [1, 4]: 44 ± 20.9 µM

CC(C)N(Cc1nc(-c2ccccc2)no1)C(=O)COc1ccc(F)cc1 [drawing 131]
IC50 [1, 4]: 8.73 ± 3.05 µM

CC(C)N(Cc1nc(-c2ccccc2)no1)C(=O)COc1ccc(-c2ccccc2)cc1 [drawing 132]
inhibition at 10 µM [1]: < 70%

CC(C)N(Cc1nc(-c2ccccc2)no1)C(=O)COc1ccc2cc(Br)ccc2c1 [drawing 133]
inhibition at 10 µM [1]: < 70%

CCc1ccc(OCC(=O)N(Cc2nc(-c3ccccc3)no2)C(C)C)cc1 [drawing 134]
IC50 [1, 4]: 0.267 ± 0.05 µM

O=C(COc1ccc(C(F)(F)F)cc1)N(Cc1nc(-c2ccccc2)no1)C1CC1 [drawing 135]
Screening Results (% Inhibition @ 10 μM) Chymotrypsin-like [1]: 35.35% and 33.80% | inhibition at 10 µM [1]: 27.3% | IC50 [1, 4]: 6.37 µM

Cc1cccc(OCC(=O)N(Cc2nc(-c3ccccc3)no2)C(C)C)c1 [drawing 136]
inhibition at 10 µM [1]: < 70%

Cc1ccc(OCC(=O)N(Cc2nc(-c3ccccn3)no2)C(C)C)cc1 [drawing 138]
IC50 [1, 4]: 3.75 ± 1.47 µM

Cc1ccc(OCC(=O)N(Cc2nc(-c3ccccc3)no2)C(C)C)cc1 [drawing 139]
IC50 [1, 4]: 0.22 ± 0.084 µM

CC(C)N(Cc1nc(-c2ccccc2)no1)C(=O)COc1ccc(C(=O)OC(C)(C)C)cc1 [drawing 141]
inhibition at 10 µM [1]: -62 ± 26.3%

Cc1ccc(OCC(=O)N(Cc2nc(-c3ccc(C)cc3)no2)C(C)(C)C)cc1 [drawing 142]
inhibition at 10 µM [1]: -108 ± 119%

CC(C)N(Cc1nc(-c2ccccc2)no1)C(=O)COc1ccc(C(=O)O)cc1 [drawing 143]
Screening Results (% Inhibition @ 10 μM) Chymotrypsin-like [1]: 27.76 ± 20.83 (n = 5) %

Cc1ccc(OCC(=O)N(CCc2nc(-c3ccccc3)no2)C(C)C)cc1 [drawing 144]
inhibition at 10 µM [1]: 31.4 ± 11.2%

CCc1ccc(OCC(=O)N(Cc2nc(-c3cccnc3)no2)C(C)C)cc1 [drawing 145]
IC50 [1, 4]: 0.099 ± 0.032 µM

CC(C)CC(NC(=O)c1ccc(OCC(=O)N(Cc2nc(-c3ccccc3)no2)C(C)C)cc1)C(=O)O (centres unmarked) [drawing 146]
Screening Results (% Inhibition @ 10 μM) Chymotrypsin-like [1]: −174.75 ± 134.18 (n = 5) %

Cc1ccc(OCC(=O)N(Cc2nc(-c3ccncc3)no2)C(C)C)cc1 [drawing 147]
inhibition at 10 µM [1]: 95.72 ± 0.88% | IC50 [1, 4]: 0.37 ± 0.046 µM

Cc1ccc(NCC(=O)N(Cc2nc(-c3ccccc3)no2)C(C)C)cc1 [drawing 148]
inhibition at 10 µM [1]: 81.5 ± 2.77% | IC50 [1, 4]: 5.67 ± 0.96 µM

Cc1ccc(OCC(=O)N(Cc2nc3ccccc3[nH]2)C(C)C)cc1 [drawing 151]
inhibition at 10 µM [1]: 80.4 ± 3.04% | IC50 [1, 4]: 12.5 ± 2.96 µM

CC(C)CC(NC(=O)c1ccc(OCC(=O)N(Cc2nc(-c3ccccc3)no2)C(C)C)cc1)C(=O)O (centres unmarked) [drawing 153]
Screening Results (% Inhibition @ 10 μM) Chymotrypsin-like [1]: −149.24 ± 157.49 (n = 5) %

Cc1ccc(OCC(=O)N(Cc2nc(-c3ccccc3)no2)C(C)C)cn1 [drawing 154]
inhibition at 10 µM [1]: 70.6 ± 5.09% | IC50 [1, 4]: 4 ± 0.89 µM

CC(C)N(Cc1nc(-c2cccnc2)no1)C(=O)COc1ccc(O)cc1 [drawing 155]
inhibition at 10 µM [1]: 78.4 ± 6.33% | IC50 [1, 4]: 0.98 ± 0.5 µM

CC(C)N(Cc1nc(-c2ccccc2)no1)C(=O)COc1ccc(O)cc1 [drawing 156]
inhibition at 10 µM [1]: -5.85 ± 23.4% | IC50 [1, 4]: 10.1 ± 4.52 µM

CCCc1ccc(OCC(=O)N(Cc2nc(-c3cccnc3)no2)C(C)C)cc1 [drawing 157]
inhibition at 10 µM [1]: 92.3 ± 2.19% | IC50 [1, 4]: 0.032 ± 0.00015 µM

CCCCc1ccc(OCC(=O)N(Cc2nc(-c3cccnc3)no2)C(C)C)cc1 [drawing 159]
IC50 [1, 4]: 0.039 ± 0.011 µM

CC(C)N(Cc1nc(-c2cccnc2)no1)C(=O)c1cc2ccccc2o1 [drawing 160]
IC50 [1, 4]: 0.379 ± 0.063 µM

CC(C)N(Cc1nc(-c2cccnc2)no1)C(=O)COc1ccccc1 [drawing 161]
IC50 [1, 4]: 3.12 ± 1.11 µM

Cc1ccc(O[C@@H](C)C(=O)N(Cc2nc(-c3cccnc3)no2)C(C)C)cc1 [drawing 162]
IC50 [1, 4]: 0.214 ± 0.053 µM

Cc1ccc(O[C@H](C)C(=O)N(Cc2nc(-c3cccnc3)no2)C(C)C)cc1 [drawing 163]
IC50 [1, 4]: 7.52 ± 2.13 µM

CCCCCc1ccc(OCC(=O)N(Cc2nc(-c3cccnc3)no2)C(C)C)cc1 [drawing 164]
IC50 [1, 4]: 0.121 ± 0.04 µM

CCCCCCc1ccc(OCC(=O)N(Cc2nc(-c3cccnc3)no2)C(C)C)cc1 [drawing 165]
IC50 [1, 4]: 0.428 ± 0.038 µM

CCCCc1ccc(OCC(=O)N(Cc2nc(-c3cnccn3)no2)C(C)C)cc1 [drawing 166]
IC50 [1, 4]: 0.107 ± 0.013 µM

CCCc1ccc(OCC(=O)N(Cc2nc(-c3cnccn3)no2)C(C)C)cc1 [drawing 167]
IC50 [1, 4]: 0.105 ± 0.031 µM

CCCc1ccc(OCC(=O)N(Cc2nc(-c3cncnc3)no2)C(C)C)cc1 [drawing 168]
IC50 [1, 4]: 0.032 ± 0.003 µM

CC(C)N(Cc1nc(-c2cccnc2)no1)C(=O)COc1ccc(C2CCCCC2)cc1 [drawing 169]
IC50 [1, 4]: 1.36 ± 0.184 µM

CC(C)N(Cc1nc(-c2cccnc2)no1)C(=O)COc1ccc(C(C)(C)C)cc1 [drawing 170]
IC50 [1, 4]: 65.9 ± 33.7 µM

CC(C)c1ccc(OCC(=O)N(Cc2nc(-c3cccnc3)no2)C(C)C)cc1 [drawing 171]
IC50 [1, 4]: 0.436 ± 0.073 µM

Cc1ccc(OCC(=O)N(Cc2nc(-c3ccc(C)cc3)no2)C2CC2)cc1 [drawing 172]
inhibition at 10 µM [1]: -8.36 ± 19%

CC(C)Cc1ccc(OCC(=O)N(Cc2nc(-c3cccnc3)no2)C(C)C)cc1 [drawing 173]
IC50 [1, 4]: 0.14 ± 0.052 µM

CCCc1ccc(OCC(=O)N(Cc2nc(-c3ncccn3)no2)C(C)C)cc1 [drawing 174]
IC50 [1, 4]: 1.27 ± 0.226 µM

CC(C)N(Cc1nc(-c2ccccc2)no1)C(=O)CCc1ccc(C(F)(F)F)cc1 [drawing 180]
IC50 ([1]; Table 8, 20S CT-L proteasome activity, read-out: IC50 (μM) CT-L): 15.7 µM

CC(C)N(Cc1nc(-c2ccccc2)no1)C(=O)CCc1ccc(C(F)(F)F)cc1 [drawing 183]
IC50 [1, 5]: 15.7 µM

Cc1ccc(OCC(=O)N(C)Cc2nc(-c3ccc(C)cc3)no2)cc1 [drawing 186]
IC50 [1, 5]: 29.9 µM

Cc1ccc(OCC(=O)N(Cc2nc(-c3ccc(C)cc3)no2)CC(C)C)cc1 [drawing 187]
IC50 [1, 5]: 2.37 ± 0.4 µM

N-Isopropyl-N-((2-phenyloxazol-4-yl)methyl)-2-(p-tolyloxy)acetamide [SO3-023]
IC50 ([1]; Table 4, read-out: IC50 (μM) Chymotrypsin-like activity): 0.45 ± 0.18 µM
